Measured values taken from the supplement of paper PMC10307832.

Legend:
Test in all cases: relative viability (nuclei count vs DMSO), 5 days (fraction); higher = more cells survive
Entinostat + Foretinib = compound: Nc1ccccc1NC(=O)c1ccc(CNC(=O)OCc2cccnc2)cc1 [Entinostat] + COc1cc2c(Oc3ccc(NC(=O)C4(C(=O)Nc5ccc(F)cc5)CC4)cc3F)ccnc2cc1OCCCN1CCOCC1 [Foretinib] (partner 0.25 µM)
Procedure, shortened: (§1)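 Nuclei were stained with Hoechst during a one-step fixation (final 0.05% Triton X-100, 1% formaldehyde, 1 ug/ml Hoechst) carried out 5 days after dosing, then counted on 4× images. The cells, lung cancer lines in 1536-well plates, had been dosed by pin tool the day after seeding with one drug alone or a fixed anchor-drug dose plus five library-drug doses (not always all listed) in √10 steps. Relative viability is the nuclei count in treated wells divided by that in vehicle wells, and each value is the median of duplicate plates.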

[1] = compound: C1COCCN1C2=NC(=NC3=C2OC4=C3C=CC=N4)C5=CC(=CC=C5)NC(=O)C6=CN=C(C=C6)N + Cc1cc(Nc2cc(N3CCN(C)CC3)nc(Sc3ccc(NC(=O)C4CC4)cc3)n2)n[nH]1 [Tozasertib] (partner 0.1 µM)
Procedure, shortened: as §1

[2] = compound: C1COCCN1C2=NC(=NC3=C2OC4=C3C=CC=N4)C5=CC(=CC=C5)NC(=O)C6=CN=C(C=C6)N + CC(=O)Nc1cccc(-n2c(=O)n(C3CC3)c(=O)c3c(Nc4ccc(I)cc4F)n(C)c(=O)c(C)c32)c1 [Trametinib] (partner 0.02 µM)
Procedure, shortened: as §1

[3] = compound: C1COCCN1C2=NC(=NC3=C2OC4=C3C=CC=N4)C5=CC(=CC=C5)NC(=O)C6=CN=C(C=C6)N + COc1cc2c(Oc3ccc(NC(=O)C4(C(=O)Nc5ccc(F)cc5)CC4)cc3F)ccnc2cc1OCCCN1CCOCC1 [Foretinib] (partner 0.25 µM)
Procedure, shortened: as §1

Cell Line | relative viability (Entinostat + Foretinib; first compound 0.02 µM) | relative viability (Entinostat + Foretinib; first compound 0.06325 µM) | relative viability (Entinostat + Foretinib; first compound 0.2 µM) | relative viability (Entinostat + Foretinib; first compound 0.6325 µM) | relative viability (Entinostat + Foretinib; first compound 2 µM) | relative viability ([1]; first compound 0.02 µM) | relative viability ([1]; first compound 0.06325 µM) | relative viability ([1]; first compound 0.2 µM) | relative viability ([1]; first compound 0.6325 µM) | relative viability ([1]; first compound 2 µM) | relative viability ([2]; first compound 0.02 µM) | relative viability ([2]; first compound 0.06325 µM) | relative viability ([2]; first compound 0.2 µM) | relative viability ([2]; first compound 0.6325 µM) | relative viability ([2]; first compound 2 µM) | relative viability ([3]; first compound 0.02 µM) | relative viability ([3]; first compound 0.06325 µM) | relative viability ([3]; first compound 0.2 µM) | relative viability ([3]; first compound 0.6325 µM) | relative viability ([3]; first compound 2 µM)
SK-MES-1 | 1.08 | 1.09 | 1.15 | 0.96 | 0.712 | 0.957 | 1.01 | 0.824 | 0.851 | 0.362 | 0.474 | 0.518 | 0.458 | 0.426 | 0.395 | 0.934 | 1.17 | 0.929 | 0.792 | 0.662
NCI-H3122 | 0.992 | 0.995 | 0.999 | 0.973 | 0.776 | 0.404 | 0.47 | 0.341 | 0.364 | 0.289 | 0.275 | 0.249 | 0.233 | 0.229 | 0.175 | 0.991 | 0.923 | 0.883 | 1.14 | 0.807
NCI-H2085 | 1.01 | 0.969 | 0.984 | 0.54 | 0.401 | 0.667 | 0.826 | 0.691 | 0.456 | 0.463 | 0.586 | 0.582 | 0.359 | 0.549 | 0.359 | 0.998 | 0.998 | 0.775 | 0.938 | 0.604
PC-14 | 0.991 | 0.951 | 0.969 | 0.441 | 0.232 | 0.593 | 0.651 | 0.566 | 0.486 | 0.307 | 0.758 | 0.932 | 0.682 | 0.633 | 0.229 | 0.965 | 1.17 | 1.04 | 0.977 | 0.755
NCI-H1355 | 0.903 | 0.91 | 0.751 | 0.695 | 0.571 | 0.628 | 0.602 | 0.515 | 0.36 | 0.352 | 0.452 | 0.427 | 0.395 | 0.367 | 0.372 | 0.995 | 1.12 | 1.1 | 0.927 | 0.642
NCI-H1650 | 1.08 | 1.06 | 1.11 | 0.681 | 0.57 | 0.472 | 0.425 | 0.328 | 0.338 | 0.255 | 0.535 | 0.497 | 0.575 | 0.526 | 0.39 | 1.12 | 1.15 | 0.974 | 1.22 | 0.76
NCI-H727 | 0.753 | 0.782 | 0.794 | 0.679 | 0.521 | 0.668 | 0.839 | 0.599 | 0.467 | 0.524 | 0.378 | 0.332 | 0.374 | 0.416 | 0.364 | 0.945 | 0.807 | 0.82 | 0.865 | 0.676
NCI-H1755 | 0.901 | 0.864 | 0.805 | 0.713 | 0.421 | 0.606 | 0.572 | 0.468 | 0.414 | 0.473 | 0.741 | 0.827 | 0.741 | 0.754 | 0.617 | 0.902 | 0.94 | 0.871 | 0.805 | 0.622
NCI-H1651 | 0.817 | 0.855 | 0.851 | 0.632 | 0.394 | 0.685 | 0.76 | 0.416 | 0.522 | 0.338 | 0.842 | 0.867 | 0.836 | 0.818 | 0.731 | 0.784 | 0.786 | 0.723 | 0.821 | 0.551
NCI-H647 | 1.23 | 1.12 | 0.826 | 0.465 | 0.23 | 0.155 | 0.292 | 0.252 | 0.137 | 0.145 | 0.414 | 0.483 | 0.419 | 0.378 | 0.234 | 1.17 | 1.16 | 1.13 | 1.14 | 0.667
NCI-H1944 | 1 | 0.711 | 0.472 | 0.364 | 0.218 | 0.259 | 0.263 | 0.228 | 0.209 | 0.173 | 0.378 | 0.453 | 0.451 | 0.382 | 0.377 | 0.898 | 0.916 | 0.942 | 0.772 | 0.731
LK-2 | 1.02 | 1.31 | 0.905 | 0.683 | 0.543 | 0.172 | 0.156 | 0.167 | 0.154 | 0.176 | 0.787 | 0.798 | 0.637 | 0.583 | 0.426 | 1.34 | 1.37 | 1.35 | 0.797 | 0.598
HCC-15 | 0.984 | 0.886 | 0.802 | 0.592 | 0.331 | 0.462 | 0.438 | 0.19 | 0.205 | 0.208 | 0.413 | 0.423 | 0.343 | 0.325 | 0.278 | 1.05 | 1.15 | 1.06 | 0.947 | 0.677
NCI-H838 | 1.05 | 1.23 | 1.12 | 0.746 | 0.321 | 0.278 | 0.278 | 0.256 | 0.257 | 0.182 | 0.52 | 0.529 | 0.463 | 0.41 | 0.298 | 1.06 | 0.987 | 0.952 | 0.884 | 0.487
HOP-62 | 1.11 | 0.983 | 0.995 | 0.609 | 0.356 | 0.358 | 0.396 | 0.337 | 0.312 | 0.225 | 0.403 | 0.415 | 0.323 | 0.359 | 0.227 | 1.12 | 1.2 | 1.12 | 1.02 | 0.568
NCI-H322M | 0.978 | 1.16 | 1.15 | 0.993 | 0.854 | 0.535 | 0.49 | 0.471 | 0.401 | 0.338 | 0.449 | 0.519 | 0.521 | 0.412 | 0.475 | 0.919 | 0.918 | 0.935 | 0.849 | 0.686
